This assay deals with 922993-354-T-J3-PDC complex spheroids, viability. Briefly: Anticancer human tumor 922993-354-T-J3-PDC patient-derived endometrial carcinoma cell line growth inhibition [GQUAD]. The settings on record: for viability, T/C: stronger effect = lower value; for IC50: curve of compound. From the text: DNA G-quadruplex Stabilizer Agents in Combinations in Complex Spheroids
A high-throughput screen of multi-cell type tumor spheroids was designed to identify active combinations of DNA G-quadruplex stabilizer agents and targeted small molecules. Complex spheroids include a stromal component modeled by human endothelial cells (HUVEC) and fibroblasts modeled by human mesenchymal stem cells (MSCs). The concentration ranges selected for each drug and investigational agent were based upon clinically achievable concentrations if the clinical Cmax of the agent was known.
Compounds. The drugs and investigational agents: pidnarulex (CX-5461; NSC782164), APTO-253 (NSC789042), BRACO-19 (NSC847499), peposertib (NSC802822), ceralasertib (NSC780249), elimusertib (NSC800525), camonsertib (NSC841442), AZD-1390 (NSC803789), olaparib (NSC753686), talazoparib (NSC767125), ART-558 (NSC835418), sotorasib (NSC818433), MRTX-1133 (NSC836407), SN-38 (NSC673596), topotecan (NSC609699), etoposide (NSC141540), doxorubicin (NSC123127), gemcitabine (NSC613327), 5-fluorouracil (NSC19893), paclitaxel (NSC125973), vemurafenib (NSC761431), panobinostat (NSC761190), R-306465 (JNJ-16241199; NSC773264), adavosertib (NSC754352), TP-3654 (NSC805149), carboplatin (NSC241240), KSQ-4279 (NSC840948), and staurosporine (NSC755774) were obtained from the National Cancer Institute (NCI) Developmental Therapeutics Program Chemical Repository (34). The FDA-approved anticancer drug set is available from the NCI Developmental Therapeutics Program. […] The stock solutions were prepared in dimethyl sulfoxide (DMSO, Sigma-Aldrich, St. Louis, MO, cat. D2650) at 800-fold the tested concentration and stored at -70 degrees C prior to their use. All drugs and investigational agents were tested over a range starting from a high concentration at or near the clinical Cmax and decreasing in half-log increments. If the clinical Cmax for an agent had not been determined, the highest concentration tested was 10 microM.
2.3 Cell Culture. All cells were maintained in an incubator at 37 degrees C and 5% CO2 with 95% humidity. The PDC lines were cultured according to standard operating procedures established by the NCI PDMR. All PDCs were thawed and cultured in Matrigel-coated flasks prepared with a working solution of 1X Ham's F-12 nutrient mix, without supplementation (Invitrogen, cat. 11765054), 100 U/mL penicillin-streptomycin (Invitrogen, cat. 15140122), and 2.5% Matrigel (Corning Inc., cat. 354248) for the first three passages. The 857933-349-R-J2-PDC line was cultured in 6C/Colon 1B media, which includes advanced DMEM/F-12 (Thermo Fisher Scientific, cat. 12634028), 10 mM HEPES (Thermo Fisher Scientific, cat. 15630080), 1X GlutaMAX supplement (Thermo Fisher Scientific, cat. 35050061), 0.1 mg/mL primocin (InvivoGen, cat. ant-pm-2), 10% defined fetal bovine serum, heat inactivated (HyClone Laboratories Inc., cat. SH30070.03HI), 50% L-WRN conditioned media (ATCC, cat. CRL-3276), 1.25 mM N-Acetyl-L-cysteine (Sigma-Aldrich, cat. A9165), 10 mM nicotinamide (Sigma-Aldrich, cat. N0636), 1X B-27 supplement (Thermo Fisher Scientific, cat. 17504044), 1X N-2 supplement (Thermo Fisher Scientific, cat. 17502048), 10 microM Y-27632 dihydrochloride (Tocris Bioscience, cat. 1254), and 50 ng/mL human EGF recombinant protein (Thermo Fisher Scientific, cat. PHG0311). The 485176-168-R4-J1-PDC line was cultured in Panc media, which includes all 6C/Colon 1B media components plus 100 ng/mL human FGF-10 (Thermo Fisher Scientific, cat. 100-26), 500 nM SB-431542 (Selleckchem, cat. S1067), and gastrin (Tocris, cat. 3006).
[…]

The text below walks through data of PubChem BioAssay AID2060489 (Molecular Pharmacology Branch, DTP, NCI, 2025).

Where “and” joins values, the source holds several entries; their conditions need not be identical. Identical values can stand only once.
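Further: spheroids exposed to compounds for seven days.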

On to `C#Cc1c(F)ccc2cc(O)cc(-c3ncc4c(N5CC6CCC(C5)N6)nc(OCC56CCCN5CC(F)C6)nc4c3F)c12` (configuration not stated), for which the IC50 – broadly, the concentration that gives 50% inhibition – is > 10000 nM. Also, where the note is “compound 0.0316 µM”, the viability, T/C (usually the ratio of treated to control) is 84.5% and 92.3% and 99.3%. For the same molecule, the viability, T/C (compound 0.1 µM) is 82.8% and 84% and 92.6%. Moreover, the viability, T/C (compound 0.316 µM) is 89.6% and 103% and 84.7%. For the same molecule, the viability, T/C (compound 1 µM) is 92.7% and 82.5% and 106%. For the same molecule, the viability, T/C (compound 3.16 µM) was 76.5% and 96.3% and 94.4%. For the same molecule, where the note is “compound 10 µM”, the viability, T/C was 96.1% and 82.3% and 91.5%.
For `C=CC(=O)N1CCN(c2nc(=O)n(-c3c(C)ccnc3C(C)C)c3nc(-c4c(O)cccc4F)c(F)cc23)C(C)C1` (configuration not stated), the IC50 was > 10000 nM. The viability, T/C (compound 0.0316 µM) is 101% and 110% and 99.2%. Also, the viability, T/C (compound 0.1 µM) was 88.4% and 88.3% and 112%. Besides, under “compound 0.316 µM”, the viability, T/C was 102% and 124% and 99.9%. In addition, the viability, T/C (compound 1 µM) was 91.4% and 97.3% and 95.3%. The viability, T/C (compound 3.16 µM) is 93.3% and 95.4% and 128%. Further, the viability, T/C (compound 10 µM) is 97.9% and 97.8% and 89.3%.
On to `CC(=O)O[C@H]1C(=O)[C@@]2(C)[C@H]([C@H](OC(=O)c3ccccc3)[C@]3(O)C[C@H](OC(=O)[C@H](O)[C@@H](NC(=O)c4ccccc4)c4ccccc4)C(C)=C1C3(C)C)[C@]1(OC(C)=O)CO[C@@H]1C[C@@H]2O`, for which the IC50 is 6760 nM and 9180 nM and > 10000 nM. Further, the viability, T/C (compound 0.0316 µM) was 109% and 89.5% and 121%. Also, the viability, T/C (compound 0.1 µM) is 95% and 93% and 85.9%. The viability, T/C (compound 0.316 µM) is 84.9% and 103% and 93.4%. Also, the viability, T/C (compound 1 µM) was 111% and 108% and 102%. Moreover, the viability, T/C (compound 3.16 µM) is 75.6% and 78.7% and 84.9%. The viability, T/C (compound 10 µM) was 36.8% and 47.7% and 50%.
On to `CC(C)(O)C1CCC(Nc2ccc3ncc(-c4cccc(C(F)(F)F)c4)n3n2)CC1` (configuration not stated), for which the IC50 is > 10000 nM. The viability, T/C (compound 0.0316 µM) is 106% and 88.2% and 93.2%. Also, the viability, T/C (compound 0.1 µM) is 81% and 82.6% and 81.6%. For the same molecule, where the note is “compound 0.316 µM”, the viability, T/C was 89.6% and 84.6% and 88.7%. The viability, T/C (compound 1 µM) was 82.9% and 101% and 90.8%. Moreover, the viability, T/C (compound 3.16 µM) is 78.8% and 68.7% and 81.9%. The viability, T/C (compound 10 µM) was 79.6% and 68% and 98.6%.
Take `CC(C)n1c(=O)n(C)c2cnc3cc(F)c(-c4ccc(OCCCN5CCCCC5)nc4)cc3c21`: the IC50 is > 10000 nM and 7750 nM. Moreover, where the note is “compound 0.0316 µM”, the viability, T/C was 96.3% and 98.6% and 87.9%. Moreover, the viability, T/C (compound 0.1 µM) was 105% and 85.5% and 77.3%. Moreover, under “compound 0.316 µM”, the viability, T/C is 70.1% and 91.7% and 63.2%. The viability, T/C (compound 1 µM) is 96% and 84.2% and 81.9%. Moreover, the viability, T/C (compound 3.16 µM) was 77.9% and 79.6% and 84.8%. In addition, the viability, T/C (compound 10 µM) is 49.7% and 55.9% and 41.8%.
`CC1COCCN1c1cc(-c2ccnn2C)c2ccnc(-c3ccn[nH]3)c2n1` (configuration not stated): the IC50 was 273 nM and 184 nM and 451 nM. In addition, the viability, T/C (compound 0.0316 µM) was 83.5% and 95% and 87.4%. For the setting “compound 0.1 µM”, the viability, T/C is 71.5% and 63.7% and 70.4%. Moreover, where the note is “compound 0.316 µM”, the viability, T/C was 48.3% and 41.6% and 62.9%. For the same molecule, the viability, T/C (compound 1 µM) is 22.1% and 12.8% and 28.7%. In addition, the viability, T/C (compound 3.16 µM) is 19.6% and 22% and 23.4%. The viability, T/C (compound 10 µM) is 16.8% and 19.2% and 17.7%.
Turning to `CC1COCCN1c1cc(C2(O)CC3CCC(C2)O3)c2cnn(-c3ccn[nH]3)c2n1` (configuration not stated), the IC50 is 514 nM and 326 nM and 460 nM. Moreover, the viability, T/C (compound 0.0316 µM) is 93.2% and 97.1% and 107%. The viability, T/C (compound 0.1 µM) is 80.6% and 62.3% and 68.6%. For the same molecule, the viability, T/C (compound 0.316 µM) was 54.2% and 56.9% and 63.5%. In addition, the viability, T/C (compound 1 µM) is 41.3% and 36% and 37.9%. Moreover, for the setting “compound 3.16 µM”, the viability, T/C was 26.8% and 19.8% and 23.5%. Besides, the viability, T/C (compound 10 µM) was 18.6% and 15.3% and 15.6%.
On to `CC1COCCN1c1cc(C2(S(C)(=N)=O)CC2)nc(-c2ccnc3[nH]ccc23)n1` (configuration not stated), for which the IC50 was > 10000 nM. For the same molecule, where the note is “compound 0.0316 µM”, the viability, T/C was 99.8% and 96.6% and 97.3%. In addition, the viability, T/C (compound 0.1 µM) is 93.4% and 96.7% and 96.8%. Moreover, the viability, T/C (compound 0.316 µM) was 91.8% and 84.6% and 95.6%. Under “compound 1 µM”, the viability, T/C is 106% and 98.6% (2×). In addition, the viability, T/C (compound 3.16 µM) is 93.7% and 129% and 92.5%. In addition, the viability, T/C (compound 10 µM) was 65.3% and 70.4% and 60.7%.
On to `CCCS(=O)(=O)Nc1ccc(F)c(C(=O)c2c[nH]c3ncc(-c4ccc(Cl)cc4)cc23)c1F`, for which the IC50 was 7090 nM and > 10000 nM. For the setting “compound 0.0316 µM”, the viability, T/C was 101% and 91.3% and 97.1%. The viability, T/C (compound 0.1 µM) was 81% and 90.5% and 83.1%. Further, the viability, T/C (compound 0.316 µM) was 99.1% and 89.8% and 101%. For the same molecule, for the setting “compound 1 µM”, the viability, T/C is 87.5% and 81% and 76%. The viability, T/C (compound 3.16 µM) was 78.5% and 68.7% and 87.7%. The viability, T/C (compound 10 µM) was 37.7% and 68.9% and 71%.
On to `CC[C@@]1(O)C(=O)OCc2c1cc1n(c2=O)Cc2cc3c(CN(C)C)c(O)ccc3nc2-1`, for which the IC50 was 298 nM and 241 nM and 249 nM. The viability, T/C (compound 0.000999 µM) was 111% and 105% and 82.9%. In addition, the viability, T/C (compound 0.00316 µM) was 80.6% and 108% and 97.9%. Besides, the viability, T/C (compound 0.00999 µM) was 113% and 76.5% and 112%. Besides, the viability, T/C (compound 0.0316 µM) is 85.2% and 98.8% and 103%. For the same molecule, the viability, T/C (compound 0.0999 µM) was 71% and 84.4% and 94.9%. Under “compound 0.316 µM”, the viability, T/C was 48.6% and 38.9% and 38.2%.
Consider `CCc1c2c(nc3ccc(O)cc13)-c1cc3c(c(=O)n1C2)COC(=O)[C@]3(O)CC`, for which the IC50 is 8.01 nM and 5.66 nM and 7.43 nM. Moreover, the viability, T/C (compound 0.000999 µM) is 87% and 104% and 96.5%. In addition, the viability, T/C (compound 0.00316 µM) is 71.4% and 69.9% and 67.3%. In addition, for the setting “compound 0.00999 µM”, the viability, T/C was 48% and 31.8% and 48.8%. Moreover, the viability, T/C (compound 0.0316 µM) is 18.4% and 10.6% and 23.2%. Also, under “compound 0.0999 µM”, the viability, T/C was 24.3% and 11.3% and 29.4%. Also, the viability, T/C (compound 0.316 µM) is 24.9% and 13.8% and 31.8%.
